In data set [1] the target is Serine protease 1 (Homo sapiens, UniProt P07477). Nature of the data set: Inhibition of human PRSS1 assessed as enzymatic cleavage of Benzoyl-GlyPro-Arg'Rh110-gammaGlu-OH by fluorescence analysis.
Data set [2] addresses Voltage-gated inwardly rectifying potassium channel KCNH2 (Homo sapiens, UniProt Q12809). Nature of the data set: Displacement of [3H]-dofetilide from human ERG expressed in HEK293 cells measured after 90 mins by scintillation proximity assay. It counts as cell-based. On the technique in general: Loss of bound radioactivity is the signal in a displacement assay; it reports binding, not function.

Data set [3] addresses Coagulation factor X (Homo sapiens, UniProt P00742). Briefly: Inhibition of human f10a.
Data set [4] deals with T1, Neutrophil elastase (Homo sapiens, UniProt P08246).
T1 sequence (P08246 whole entry): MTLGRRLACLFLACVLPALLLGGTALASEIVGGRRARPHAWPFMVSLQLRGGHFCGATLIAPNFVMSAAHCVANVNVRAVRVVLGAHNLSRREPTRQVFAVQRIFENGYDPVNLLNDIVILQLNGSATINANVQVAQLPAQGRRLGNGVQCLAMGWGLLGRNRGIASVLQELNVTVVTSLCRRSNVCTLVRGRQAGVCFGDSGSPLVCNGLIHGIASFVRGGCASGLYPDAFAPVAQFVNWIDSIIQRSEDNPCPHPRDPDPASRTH
Briefly: Inhibition of human neutrophil elastase.

Data set [5] concerns the target Prothrombin (Homo sapiens, UniProt P00734). Briefly: Inhibition of human thrombin.
Data set [6] can be described thus: Clearance in Sprague-Dawley rat at 1 mg/kg, iv. In kind it is ADME, organism-based. Conditions: in vivo.
Data set [7] can be described thus: Solubility of the compound at pH 6.8. It counts as physicochemical. Conditions: buffer.
Data set [8] in a line: AUC (0 to 24 hrs) in Sprague-Dawley rat at 1 mg/kg, iv. Conditions: in vivo. On the set-up: time < 24 hr, dose 1 mg/kg, route intravenous. In kind it is ADME, organism-based.
Data set [9] has as its target Chymotrypsin (Homo sapiens, UniProt Q99895+P17538+P40313+Q6GPI1). Briefly: Inhibition of human chymotrypsin. It counts as protein assay.
A short description of data set [10]: Dissociation constant, pKa of the compound. In kind it is physicochemical.
Data set [11] can be described thus: Lipophilicity, log P of the compound. It counts as physicochemical. Conditions: octanol/water.

Coagulation factor X, sequence (P00742 41-179 limits assumed): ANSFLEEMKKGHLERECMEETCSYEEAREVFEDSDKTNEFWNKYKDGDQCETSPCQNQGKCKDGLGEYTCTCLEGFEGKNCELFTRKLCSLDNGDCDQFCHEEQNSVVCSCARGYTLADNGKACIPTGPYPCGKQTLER
Coagulation factor X, sequence (P00742 235-488 limits assumed): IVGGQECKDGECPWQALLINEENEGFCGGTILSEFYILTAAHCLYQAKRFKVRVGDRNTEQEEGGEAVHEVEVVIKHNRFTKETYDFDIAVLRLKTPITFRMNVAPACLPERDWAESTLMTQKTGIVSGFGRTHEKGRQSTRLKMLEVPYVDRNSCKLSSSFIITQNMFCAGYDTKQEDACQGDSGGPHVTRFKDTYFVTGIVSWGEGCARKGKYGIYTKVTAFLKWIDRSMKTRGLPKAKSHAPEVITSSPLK
Voltage-gated inwardly rectifying potassium channel KCNH2, sequence (Q12809 whole entry): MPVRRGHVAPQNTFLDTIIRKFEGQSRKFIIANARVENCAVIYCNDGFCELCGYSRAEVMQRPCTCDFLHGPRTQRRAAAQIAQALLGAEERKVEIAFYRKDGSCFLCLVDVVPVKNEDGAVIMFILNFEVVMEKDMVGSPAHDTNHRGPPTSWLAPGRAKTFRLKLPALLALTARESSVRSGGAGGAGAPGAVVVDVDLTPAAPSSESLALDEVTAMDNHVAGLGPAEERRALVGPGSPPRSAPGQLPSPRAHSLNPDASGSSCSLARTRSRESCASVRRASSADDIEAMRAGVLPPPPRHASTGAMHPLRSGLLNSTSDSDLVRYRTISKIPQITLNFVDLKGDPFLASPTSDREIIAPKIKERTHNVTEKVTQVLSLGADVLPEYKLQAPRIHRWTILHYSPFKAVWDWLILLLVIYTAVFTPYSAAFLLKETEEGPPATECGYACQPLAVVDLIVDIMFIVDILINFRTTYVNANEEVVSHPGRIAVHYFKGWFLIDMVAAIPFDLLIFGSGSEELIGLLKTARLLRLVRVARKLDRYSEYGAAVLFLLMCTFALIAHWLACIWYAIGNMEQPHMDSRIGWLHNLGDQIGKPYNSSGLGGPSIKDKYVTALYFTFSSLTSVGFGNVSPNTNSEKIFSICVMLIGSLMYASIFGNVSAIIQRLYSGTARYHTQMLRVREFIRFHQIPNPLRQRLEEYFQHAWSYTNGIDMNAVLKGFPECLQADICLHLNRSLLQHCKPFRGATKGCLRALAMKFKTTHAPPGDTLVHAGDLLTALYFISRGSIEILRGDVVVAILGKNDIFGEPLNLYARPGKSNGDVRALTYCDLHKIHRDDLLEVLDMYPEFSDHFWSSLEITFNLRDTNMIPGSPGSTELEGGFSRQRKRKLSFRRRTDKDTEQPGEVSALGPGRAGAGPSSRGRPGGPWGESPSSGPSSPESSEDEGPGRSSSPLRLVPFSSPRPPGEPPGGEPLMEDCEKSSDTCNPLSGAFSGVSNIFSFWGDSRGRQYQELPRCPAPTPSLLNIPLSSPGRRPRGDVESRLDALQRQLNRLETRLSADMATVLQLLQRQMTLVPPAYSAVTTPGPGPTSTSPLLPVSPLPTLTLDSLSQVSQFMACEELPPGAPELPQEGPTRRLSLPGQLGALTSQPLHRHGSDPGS
Serine protease 1, sequence (P07477 whole entry): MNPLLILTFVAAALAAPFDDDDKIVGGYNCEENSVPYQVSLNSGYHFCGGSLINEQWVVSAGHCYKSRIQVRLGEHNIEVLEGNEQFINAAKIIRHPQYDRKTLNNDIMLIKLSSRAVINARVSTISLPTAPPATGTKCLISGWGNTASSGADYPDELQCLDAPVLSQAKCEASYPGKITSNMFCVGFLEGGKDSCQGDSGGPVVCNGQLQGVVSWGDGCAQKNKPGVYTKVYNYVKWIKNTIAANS

Turning to `COc1cc(C(=O)N2C[C@@H](n3cc(C4CC4)nn3)C[C@H]2C(=O)NCCc2ccccc2)ccc1CN`, the IC50 in data set [1] stood at 0.16 µM.

Turning to `CNC(=O)[C@@H]1C[C@H](N2CCc3c(cccc3OCCC3CC3)C2)CN1C(=O)c1ccc(CN)c(OC)c1`, the IC50 in [2] stood at 11 µM; in data set [1], 0.002 µM.

Regarding `CNC(=O)[C@@H]1C[C@H](N2CCc3c(ncnc3OCCC3CC3)C2)CN1C(=O)c1ccc(CN)c(OC)c1`, the IC50 was above 30 µM in data set [2] and 0.006 µM in data set [1].

On to `CNC(=O)[C@@H]1C[C@H](N2CCc3c(ncnc3OCCc3ccccc3)C2)CN1C(=O)c1ccc(CN)c(OC)c1`, for which the 50% inhibitory concentration (IC50) in data set [2] was above 30 µM; in data set [1] it was 0.005 µM.

For `CNC(=O)[C@@H]1C[C@H](N2CCc3c(cccc3OCCc3ccccc3)C2)CN1C(=O)c1ccc(CN)c(OC)c1`, the IC50 in [2] was determined as 4 µM; in data set [1] it was 0.003 µM.

For `CNC(=O)[C@@H]1C[C@H](N2CCc3c(cccc3OCCOC)C2)CN1C(=O)c1ccc(CN)c(OC)c1`, the 50% inhibitory concentration (IC50) is above 100 µM in data set [3]; above 100 µM in data set [4]; above 100 µM in [5]; above 30 µM in [2]; above 100 µM in data set [9]; 0.008 µM in [1]. The molecule also displayed a clearance in data set [6] of 9 mL/min/kg. The solubility in data set [7] was above 1000 µM. In addition, the exposure AUC(0-t) at 24 h in [8] turned out to be 3.88 µM·h.

`CNC(=O)[C@@H]1C[C@H](N2CCc3ccccc3C2)CN1C(=O)c1ccc(CN)c(OC)c1`: the IC50 was above 30 µM in data set [2] and 0.49 µM in data set [1].

With `CNC(=O)[C@@H]1C[C@H](n2cc(C3CC3)nn2)CN1C(=O)c1ccc(CN)c(OC)c1`, the figures for the IC50 in [2] and in data set [1] were above 30 µM and 2.1 µM, respectively.

In the case of `COc1cc(C(=O)N2C[C@@H](n3cc(C4CC4)nn3)C[C@H]2C(=O)N[C@@H]2C[C@H]2c2ccccc2)ccc1CN`, the IC50 was 22 µM in data set [2] and 0.11 µM in data set [1].

As for `CNC(=O)[C@@H]1C[C@H](N2CCc3c(cccc3OC)C2)CN1C(=O)c1ccc(CN)c(OC)c1`, the 50% inhibitory concentration (IC50) is above 30 µM in [2] and 0.1 µM in data set [1].

`COc1cc(C(=O)N2C[C@@H](n3cc(C4CC4)nn3)C[C@H]2C(=O)N2CC[C@@H](c3ccccc3)C2)ccc1CN`: in data set [1], the 50% inhibitory concentration (IC50) was 0.33 µM.

For the molecule `COc1cc(C(=O)N2C[C@@H](n3cc(C4CC4)nn3)C[C@H]2C(=O)N[C@H]2CCCC[C@@H]2c2ccccc2)ccc1CN`, the IC50 in data set [3] is 72 µM; in data set [4] it was above 100 µM; in [5], 54 µM; in [9], above 100 µM; in [1], 0.019 µM.

In turn, `NCc1ccc(C(=O)N2C[C@@H](n3cc(C4CC4)nn3)C[C@H]2C(=O)NCC(c2ccccc2)c2ccccc2)cc1F` yielded a pKa in [10] of 6.2. Moreover, the 50% inhibitory concentration (IC50) in [1] was determined as 31 µM.

Regarding `NCc1ccc(C(=O)N2C[C@@H](n3cc(C4CC4)nn3)C[C@H]2C(=O)NCC(c2ccccc2)c2ccccc2)cc1`, the half-maximal inhibitory concentration (IC50) in data set [3] was 71 µM; in data set [4], above 100 µM; in data set [5], 94 µM; in data set [2], 0.5 µM; in [9] it was above 100 µM; in [1] it was 0.11 µM. In data set [10], this molecule gave a pKa of 8.5. The logP in [11] stood at 3. Also, the solubility in data set [7] is above 1000 µM.

On to `COc1cc(C(=O)N2C[C@@H](n3cc(C4CC4)nn3)C[C@H]2C(=O)NCC(c2ccccc2)c2ccccc2)ccc1CN`, for which the half-maximal inhibitory concentration (IC50) in [3] is 31 µM; in data set [4] it was 55 µM; in data set [5], 27 µM; in data set [2] it was 2.4 µM; in [9], 15 µM; in data set [1], 0.011 to 0.014 µM. The molecule also had a pKa in data set [10] of 9.2. Further, in data set [6], the clearance is 33 mL/min/kg. Further, in [7], the solubility was above 1000 µM. Also, the AUC(0-t) at 24 h in data set [8] is 1.03 µM·h.

For the molecule `COc1cc(C(=O)N2C[C@@H](n3cc(C4CC4)nn3)C[C@H]2C(=O)N2CC[C@H](c3ccccc3)C2)ccc1CN`, the IC50 in [2] was determined as 14 µM; in data set [1], 0.22 µM.

For `Cc1cc(C(=O)N2C[C@@H](n3cc(C4CC4)nn3)C[C@H]2C(=O)NCC(c2ccccc2)c2ccccc2)ccc1CN`, in data set [10], the pKa was 8.7. Further, the 50% inhibitory concentration (IC50) in data set [1] was found to be 0.11 µM.

For the molecule `COc1cc(C(=O)N2C[C@@H](n3cc(C4CC4)nn3)C[C@H]2C(=O)N[C@H]2C[C@@H]2c2ccccc2)ccc1CN`, the concentration for half-maximal inhibition (IC50) in [1] turned out to be 0.96 µM.

By IC50 is commonly meant the concentration that inhibits the measured activity by half. In general, clearance refers to the volume of plasma or blood freed of the substance per unit of time. The low end stands for a low capacity for elimination, the high end for a high capacity for elimination. Broadly, the solubility is how much of the substance goes into solution per volume. Low readings indicate a poorly soluble substance, high ones a readily soluble substance. By AUC(0-t) is commonly meant the area under the concentration-time curve up to a stated or last time point. For orientation: pKa means the pH at which an ionisable group is half protonated. Read a high pKa as a weaker acid or stronger base. Usually logP stands for the decadic logarithm of the partition coefficient of the neutral form, usually between octanol and water.

For the origin of these results see ChEMBL document CHEMBL4425182, “Trypsin inhibitors for the treatment of pancreatitis” (Bioorg Med Chem Lett, 2016).
